Source: patent publication US4416884A, “Piperazinylbenzoheterocyclic compounds” (Otsuka Pharmaceutical Co., Ltd., priority 1978, dated 1983)
≈ marks a conversion by molar mass, not a printed value. Read-outs that look alike come from different tables or passages of the source.

Key:
[1] = tested on: Aeromonas salmonicida IFO 12718; experiment: antimicrobial activity on bacteria which cause infectious diseases in fish; assay type: cell-based
Method: (§1) The antimicrobial activity of the following test compounds on various test organisms listed below was determined by the serial dilution method on agar plate (Heart Infusion agar produced by Difco Co.) (see CHEMOTHERAPY 22, pp. 1126-1128 (1974)), and the minimum inhibitory concentrations (mcg/ml) obtained are shown in Table 1 below.
(§2) A sample of each test organism was prepared so that the population of the organism was 1×10^8 cells/ml (O.D. 660 mμ=0.07 to 0.16) and 1×10^6 cells/ml (which was obtained by diluting the above 1×10^8 cells/ml preparation).
(§3) In the same manner as above, the antimicrobial activity of the following compounds on various test organisms which cause infectious diseases in fish was determined.

[2] = tested on: Aeromonas salmonicida IFO 12659; experiment: as above; assay type: cell-based
Method: as §1, §2, §3

[3] = tested on: Pseudomonas fluorescens IFO 12180; experiment: as above; assay type: cell-based; conditions: IFO12180, read-out: Minimum Inhibitory Concentration
Method: as §1, §2, §3

[4] = tested on: Aeromonas hydrophila IFO 12981; experiment: as above; assay type: cell-based
Method: as §1, §2, §3

[5] = tested on: Vibrio anguillarum IFO 12710; experiment: as above; assay type: cell-based
Method: as §1, §2, §3

[6] = tested on: Pseudomonas fluorescens IFO 12568; experiment: as above; assay type: cell-based
Method: as §1, §2, §3

[7] = tested on: Vibrio anguillarum IFO 13266; experiment: as above; assay type: cell-based
Method: as §1, §2, §3

[8] = tested on: Aeromonas hydrophila IFO 12658; experiment: as above; assay type: cell-based
Method: as §1, §2, §3

[9] = acute toxicity by intravenous administration in mice; conditions: mouse, in vivo, i.v., mice not fed for 12 hours
Method: The acute toxicity of the compounds of this invention having the formula (I) was determined by intravenous administration (i.v.) in mice which had not been fed for 12 hours prior to the test. LD50 values (50% lethal dose) obtained are set forth below:
In the same manner as above, LD50 values were determined for all the other test compounds and the LD50 values obtained were at least 500 mg/kg.

[10] = tested on: Bacillus subtilis PCI 219; experiment: antimicrobial activity, serial dilution method on agar plate; assay type: cell-based
Method: as §1, §2

[11] = tested on: Proteus morganii IID Kono; experiment: as above; assay type: cell-based; conditions: Morganella morganii
Method: as §1, §2

Proteus rettgeri NIH 96 = experiment: as above; assay type: cell-based; conditions: Providencia rettgeri
Method: as §1, §2

[12] = tested on: Proteus vulgaris IID OX-19; experiment: as above; assay type: cell-based; conditions: read-out: Minimum Inhibitory Concentration
Method: as §1, §2

[13] = tested on: Pseudomonas aeruginosa ATCC 10145; experiment: as above; assay type: cell-based
Method: as §1, §2

[14] = tested on: Escherichia Coli NIHJ JC-2 (IFO 12734); experiment: as above; assay type: cell-based; conditions: Escherichia coli, read-out: Minimum Inhibitory Concentration
Method: as §1, §2

Shigella Sonnei EW 33 = experiment: as above; assay type: cell-based; conditions: read-out: Minimum Inhibitory Concentration
Method: as §1, §2

[15] = tested on: Staphylococcus aureus FDA 209 P; experiment: as above; assay type: cell-based
Method: as §1, §2

[16] = tested on: Yersinia enterocolitica 0-3; experiment: as above; assay type: cell-based
Method: as §1, §2

[17] = tested on: Salmonella typhi 0-901 (NCTC 8393); experiment: as above; assay type: cell-based; conditions: Salmonella enterica
Method: as §1, §2

[18] = tested on: Serattia marcescens IFO 12648; experiment: as above; assay type: cell-based
Method: as §1, §2

[19] = tested on: Klebsiella pneumoniae ST-101; experiment: as above; assay type: cell-based
Method: as §1, §2

Escherichia Coli NIHJ = experiment: as above; assay type: cell-based
Method: as §1, §2

Klebsiella pneumoniae = experiment: as above; assay type: cell-based
Method: as §1, §2

[20] = tested on: Pseudomonas aeruginosa E-2; experiment: as above; assay type: cell-based; conditions: E2, inoculum 1 × 10^8 cells/ml, read-out: Minimum Inhibitory Concentration
Method: as §1, §2

[21] = tested on: Pseudomonas aeruginosa NCTC 10490; experiment: as above; assay type: cell-based; conditions: NCTC10490, inoculum 1 × 10^8 cells/ml, read-out: Minimum Inhibitory Concentration
Method: as §1, §2

[22] = read-out: Minimum Inhibitory Concentration, inoculum 1 × 10^6 cells/ml
[23] = read-out: Minimum Inhibitory Concentration, inoculum 1 × 10^8 cells/ml
[24] = inoculum 1 × 10^8 cells/ml, read-out: Minimum Inhibitory Concentration
[25] = NIH96, inoculum 1 × 10^8 cells/ml, read-out: Minimum Inhibitory Concentration
[26] = ATCC10145, inoculum 1 × 10^8 cells/ml, read-out: Minimum Inhibitory Concentration
[27] = FDA209, inoculum 1 × 10^8 cells/ml, read-out: Minimum Inhibitory Concentration

O=C(O)c1cn2c3c(c(N4CCNCC4)ccc3c1=O)CCC2 [B]
MIC ([1]; IFO12718, inoculum 10^6, read-out: Minimum Inhibitory Concentration): 0.4 µg/mL (≈ 1.28 µM)
MIC ([1]; IFO12718, inoculum 10^8, read-out: Minimum Inhibitory Concentration): 0.8 µg/mL (≈ 2.55 µM)
MIC ([2]; IFO12659, inoculum 10^6, read-out: Minimum Inhibitory Concentration): 0.8 µg/mL (≈ 2.55 µM)
MIC ([2]; IFO12659, inoculum 10^8, read-out: Minimum Inhibitory Concentration): 1.6 µg/mL (≈ 5.11 µM)
MIC [3]: 6.3 µg/mL (≈ 20.1 µM)
MIC ([4]; IFO12981, inoculum 10^6, read-out: Minimum Inhibitory Concentration): 0.4 µg/mL (≈ 1.28 µM)
MIC ([4]; IFO12981, inoculum 10^8, read-out: Minimum Inhibitory Concentration): 0.8 µg/mL (≈ 2.55 µM)
MIC ([5]; IFO12710, read-out: Minimum Inhibitory Concentration, inoculum 10^6): 3.1 µg/mL (≈ 9.89 µM)
MIC ([5]; IFO12710, read-out: Minimum Inhibitory Concentration, inoculum 10^8): 12.5 µg/mL (≈ 39.9 µM)
MIC ([6]; IFO12568, read-out: Minimum Inhibitory Concentration, inoculum 10^6): 25 µg/mL (≈ 79.8 µM)
MIC ([6]; IFO12568, read-out: Minimum Inhibitory Concentration, inoculum 10^8): 50 µg/mL (≈ 160 µM)
MIC ([7]; IFO13266, read-out: Minimum Inhibitory Concentration, inoculum 10^6): 0.4 µg/mL (≈ 1.28 µM)
MIC ([7]; IFO13266, read-out: Minimum Inhibitory Concentration, inoculum 10^8): 0.8 µg/mL (≈ 2.55 µM)
MIC ([8]; IFO12658, inoculum 10^6, read-out: Minimum Inhibitory Concentration): 0.8 µg/mL (≈ 2.55 µM)
MIC ([8]; IFO12658, inoculum 10^8, read-out: Minimum Inhibitory Concentration): 1.6 µg/mL (≈ 5.11 µM)
LD50 [9]: 1100 mg/kg
MIC ([10]; PCI219, read-out: Minimum Inhibitory Concentration, inoculum 1 × 10^6 cells/ml): 12.5 µg/mL (≈ 39.9 µM)
MIC ([10]; PCI219, read-out: Minimum Inhibitory Concentration, inoculum 1 × 10^8 cells/ml): 12.5 µg/mL (≈ 39.9 µM)
MIC [11, 22]: 6.3 µg/mL (≈ 20.1 µM)
MIC [11, 23]: 12.5 µg/mL (≈ 39.9 µM)
MIC (Proteus rettgeri NIH 96; NIH96, read-out: Minimum Inhibitory Concentration, inoculum 1 × 10^6 cells/ml): 1.6 µg/mL (≈ 5.11 µM)
MIC (Proteus rettgeri NIH 96; NIH96, read-out: Minimum Inhibitory Concentration, inoculum 1 × 10^8 cells/ml): 1.6 µg/mL (≈ 5.11 µM)
MIC ([12]; IIDOX19, inoculum 1 × 10^6 cells/ml): 1.6 µg/mL (≈ 5.11 µM)
MIC ([12]; IIDOX19, inoculum 1 × 10^8 cells/ml): 12.5 µg/mL (≈ 39.9 µM)
MIC ([13]; ATCC10145, read-out: Minimum Inhibitory Concentration, inoculum 1 × 10^6 cells/ml): 6.3 µg/mL (≈ 20.1 µM)
MIC ([13]; ATCC10145, read-out: Minimum Inhibitory Concentration, inoculum 1 × 10^8 cells/ml): 12.5 µg/mL (≈ 39.9 µM)
MIC [14]: 3.1 µg/mL (≈ 9.89 µM)
MIC (Shigella Sonnei EW 33; inoculum 1 × 10^6 cells/ml): 1.6 µg/mL (≈ 5.11 µM)
MIC (Shigella Sonnei EW 33; inoculum 1 × 10^8 cells/ml): 1.6 µg/mL (≈ 5.11 µM)
MIC ([15]; FDA209, read-out: Minimum Inhibitory Concentration, inoculum 1 × 10^6 cells/ml): 12.5 µg/mL (≈ 39.9 µM)
MIC ([15]; FDA209, read-out: Minimum Inhibitory Concentration, inoculum 1 × 10^8 cells/ml): 2.5 µg/mL (≈ 7.98 µM)
MIC ([16]; Yersinia enterocolitica, 03, read-out: Minimum Inhibitory Concentration, inoculum 1 × 10^6 cells/ml): 3.1 µg/mL (≈ 9.89 µM)
MIC ([16]; Yersinia enterocolitica, 03, read-out: Minimum Inhibitory Concentration, inoculum 1 × 10^8 cells/ml): 12.5 µg/mL (≈ 39.9 µM)
MIC ([17]; inoculum 1 × 10^6 cells/ml, read-out: Minimum Inhibitory Concentration): 0.8 µg/mL (≈ 2.55 µM)
MIC [17, 24]: 0.8 µg/mL (≈ 2.55 µM)
MIC [18, 22]: 3.1 µg/mL (≈ 9.89 µM)
MIC [18, 23]: 6.3 µg/mL (≈ 20.1 µM)
MIC ([19]; ST101, read-out: Minimum Inhibitory Concentration, inoculum 1 × 10^6 cells/ml): 1.6 µg/mL (≈ 5.11 µM)
MIC ([19]; ST101, read-out: Minimum Inhibitory Concentration, inoculum 1 × 10^8 cells/ml): 1.6 µg/mL (≈ 5.11 µM)
MIC (Escherichia Coli NIHJ; [22]): 0.8 µg/mL (≈ 2.55 µM)
MIC (Escherichia Coli NIHJ; [23]): 1.6 µg/mL (≈ 5.11 µM)
MIC (Klebsiella pneumoniae; [22]): 1.6 µg/mL (≈ 5.11 µM)
MIC (Klebsiella pneumoniae; [23]): 6.3 µg/mL (≈ 20.1 µM)

CC1(C)SC2C(NC(=O)C(NC(=O)c3cn4c5c(c(N6CCN(S(C)(=O)=O)CC6)ccc5c3=O)CCC4)c3ccccc3)C(=O)N2C1C(=O)O (stereo not drawn) [Compound J, 6-{2-[8-(4-Methanesulfonyl-1-piperazinyl)-6,7-dihydro-1-oxo-1H,5H--benzo[ij]quinolizine-2-carboxamido]-2-phenylacetamido}-3,3-dimethyl-7-oxo-4-thia-1-azabicyclo[3,2,0]-heptane-2-carboxylic acid, reference compound]
MIC [20]: 25 µg/mL (≈ 34.6 µM)
MIC (Proteus rettgeri NIH 96; [25]): 12.5 µg/mL (≈ 17.3 µM)
MIC [13, 26]: 12.5 µg/mL (≈ 17.3 µM)
MIC (Shigella Sonnei EW 33; inoculum 1 × 10^8 cells/ml): 6.3 µg/mL (≈ 8.72 µM)
MIC [15, 27]: 0.8 µg/mL (≈ 1.11 µM)
MIC [17, 23]: 3.1 µg/mL (≈ 4.29 µM)
MIC [18, 24]: 50 µg/mL (≈ 69.2 µM)
MIC [21]: 3.1 µg/mL (≈ 4.29 µM)
MIC (Escherichia Coli NIHJ; [24]): 3.1 µg/mL (≈ 4.29 µM)
MIC (Klebsiella pneumoniae; [24]): 6.3 µg/mL (≈ 8.72 µM)

CC1(C)SC2C(NC(=O)C(NC(=O)c3cn4c5c(c(N6CCNCC6)cc(Cl)c5c3=O)CCC4)c3ccccc3)C(=O)N2C1C(=O)O (stereo not drawn) [Compound K, 6-{2-[10-Chloro-8-(1-piperazinyl)-6,7-dihydro-1-oxo-1H,5H--benzo[ij]quinolizine-2-carboxamido]-2-phenylacetamido}-3,3-dimethyl-7-oxo-4-thia-1-azabicyclo[3,2,0]heptane-2-carboxylic acid, reference compound]
MIC [20]: 25 µg/mL (≈ 36.8 µM)
MIC (Proteus rettgeri NIH 96; [25]): 12.5 µg/mL (≈ 18.4 µM)
MIC [13, 26]: 12.5 µg/mL (≈ 18.4 µM)
MIC (Shigella Sonnei EW 33; inoculum 1 × 10^8 cells/ml): 3.1 µg/mL (≈ 4.56 µM)
MIC [15, 27]: 0.8 µg/mL (≈ 1.18 µM)
MIC [17, 23]: 3.1 µg/mL (≈ 4.56 µM)
MIC [18, 24]: 12.5 µg/mL (≈ 18.4 µM)
MIC [21]: 3.1 µg/mL (≈ 4.56 µM)
MIC (Escherichia Coli NIHJ; [24]): 6.3 µg/mL (≈ 9.28 µM)
MIC (Klebsiella pneumoniae; [24]): 6.3 µg/mL (≈ 9.28 µM)
